Assay results from patent US4232150A, “Oligosaccharide precursors to substituted O-α-D and O-β-D-multigalactopyranosyl and glucopyranosyl 1→4 and 1→6 galactopyranosyl 1→6α-D-glucopyranoses” (American Cyanamid Company, priority 1979, dated 1980).
Structures can show the parent of a compound that is named as a salt.

Tests used:
complement system = conditions: cited from earlier work
[1] = tested on: hereditary angioneurotic edema; conditions: in vivo; cited from earlier work
human serum complement = conditions: in vitro and in vivo; cited from earlier work
activated human C1 = molecular target: T1, activated human C1 (Homo sapiens, UniProt P09871); experiment: Test Code 026 (C1 inhibitor); assay type: biochemical; conditions: serial twofold dilution assay; higher well number indicates higher activity
T1 construct: functional test of fluid-phase human C2 destruction in presence of C4
T1 sequence (P09871 16-688): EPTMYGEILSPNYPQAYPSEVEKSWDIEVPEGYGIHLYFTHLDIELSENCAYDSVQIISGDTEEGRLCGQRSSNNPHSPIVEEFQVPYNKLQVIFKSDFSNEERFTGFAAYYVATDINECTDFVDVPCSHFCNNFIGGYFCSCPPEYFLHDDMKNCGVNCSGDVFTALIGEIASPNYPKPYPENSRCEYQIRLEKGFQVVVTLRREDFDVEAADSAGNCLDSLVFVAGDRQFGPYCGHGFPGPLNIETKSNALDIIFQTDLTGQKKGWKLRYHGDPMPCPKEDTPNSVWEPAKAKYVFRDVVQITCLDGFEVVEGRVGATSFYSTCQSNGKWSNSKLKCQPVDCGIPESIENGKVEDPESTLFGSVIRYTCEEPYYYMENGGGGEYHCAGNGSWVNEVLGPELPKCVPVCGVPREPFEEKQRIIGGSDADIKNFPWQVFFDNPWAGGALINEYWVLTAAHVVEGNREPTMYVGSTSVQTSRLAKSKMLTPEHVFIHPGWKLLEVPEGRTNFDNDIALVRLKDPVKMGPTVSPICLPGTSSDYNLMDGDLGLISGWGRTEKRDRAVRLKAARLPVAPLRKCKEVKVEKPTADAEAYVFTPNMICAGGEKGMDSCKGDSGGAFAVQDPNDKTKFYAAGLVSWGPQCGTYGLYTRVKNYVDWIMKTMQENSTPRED
T1 sequence (P00736 18-705 partner): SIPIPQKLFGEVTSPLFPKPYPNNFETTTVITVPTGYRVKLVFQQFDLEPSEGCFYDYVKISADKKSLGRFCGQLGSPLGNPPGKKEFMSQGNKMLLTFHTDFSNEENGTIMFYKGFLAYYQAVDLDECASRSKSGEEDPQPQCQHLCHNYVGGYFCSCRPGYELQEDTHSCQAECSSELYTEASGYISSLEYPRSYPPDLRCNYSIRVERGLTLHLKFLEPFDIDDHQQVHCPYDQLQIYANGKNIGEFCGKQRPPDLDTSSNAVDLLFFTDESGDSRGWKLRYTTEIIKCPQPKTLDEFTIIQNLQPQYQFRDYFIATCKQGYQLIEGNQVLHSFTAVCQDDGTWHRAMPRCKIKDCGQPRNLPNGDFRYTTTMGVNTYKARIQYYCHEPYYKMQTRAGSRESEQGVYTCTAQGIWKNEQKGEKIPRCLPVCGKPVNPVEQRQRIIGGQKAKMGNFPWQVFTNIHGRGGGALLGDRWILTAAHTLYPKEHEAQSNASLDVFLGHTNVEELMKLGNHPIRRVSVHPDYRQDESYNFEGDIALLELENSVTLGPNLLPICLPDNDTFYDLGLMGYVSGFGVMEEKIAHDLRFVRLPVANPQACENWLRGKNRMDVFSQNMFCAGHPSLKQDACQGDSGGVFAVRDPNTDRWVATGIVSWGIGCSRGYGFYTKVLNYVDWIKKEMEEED
T1 sequence (P02745 23-245 partner): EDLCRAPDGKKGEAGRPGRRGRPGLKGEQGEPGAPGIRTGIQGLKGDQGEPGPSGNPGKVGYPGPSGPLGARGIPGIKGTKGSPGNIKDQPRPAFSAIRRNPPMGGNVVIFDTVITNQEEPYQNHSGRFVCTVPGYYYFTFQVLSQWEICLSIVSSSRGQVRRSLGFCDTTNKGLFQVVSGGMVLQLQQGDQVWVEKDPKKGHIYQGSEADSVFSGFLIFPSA
T1 sequence (P02746 28-253 partner): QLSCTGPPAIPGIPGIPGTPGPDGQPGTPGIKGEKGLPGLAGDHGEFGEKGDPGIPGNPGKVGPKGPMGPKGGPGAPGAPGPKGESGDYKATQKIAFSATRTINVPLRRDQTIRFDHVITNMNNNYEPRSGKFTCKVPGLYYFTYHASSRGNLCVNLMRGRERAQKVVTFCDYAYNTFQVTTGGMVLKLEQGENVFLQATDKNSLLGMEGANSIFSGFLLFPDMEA
T1 sequence (P02747 29-245 partner): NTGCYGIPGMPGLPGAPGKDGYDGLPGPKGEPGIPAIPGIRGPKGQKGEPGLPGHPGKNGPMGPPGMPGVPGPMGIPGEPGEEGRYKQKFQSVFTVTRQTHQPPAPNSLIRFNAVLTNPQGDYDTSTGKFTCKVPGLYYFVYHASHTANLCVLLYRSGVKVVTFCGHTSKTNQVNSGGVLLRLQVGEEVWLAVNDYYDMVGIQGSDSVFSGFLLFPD
Excerpt: (§1) An active inhibitor protects C2 from C1 and C4; (ii) Test Cod3 035 (3-C9 inhibitor)--This test determines the ability of the late components of human complement (C3-C9) to lyse EAC 142 in the presence of appropriate dilutions of the test compound. An active inhibitor protects EAC 142 from lysis by human C3-C9; (iii) Test Code 036 (C-Shunt inhibitor)--In this test human erythrocytes rendered fragile are lysed in autologous serum via the shunt pathway activated by cobra venom factor in the presence of appropriate dilutions of the test compound. Inhibition of the shunt pathway results in failure of lysis; (iv) Forssman Vasculitis Test--Here, the well known complement dependent lesion, Forssman vasculitis, is produced in guinea pigs by intradermal injection of rabbit anti-Forssman antiserum. The lesion is measured in terms of diameter, edema and hemorrhage and the extent to which a combined index of these is inhibited by prior intraperitoneal injection of the test compound at 200 mg/kg is then reported, unless otherwise stated; (v) Forssman Shock Test--Lethal shock is produced in guinea pigs by an i.v. injection of anti-Forssman antiserum and the harmonic mean death time of treated guinea pigs is compared with that of simultaneous controls; (vi) Complement Level Reduction Test--In this test, the above dosed guinea pigs, or others, are bled for serum and the complement level is determined in undiluted serum by the capillary tube method of U.S. Pat. No. 3,876,376 and compared to undosed control guinea pigs; (vii) Cap 50 Test--Here, appropriate amounts of the test compound are added to a pool of guinea pig serum in vitro, after which the undiluted serum capillary tube assay referred to above is run. The concentration of compound inhibiting 50% is reported;
(§2) **Activity in wells, a serial dilution assay; higher well number indicate
(§3) higher activity. The serial dilutions are twofold

[2] = tested on: late components of human complement (C3-C9); experiment: Test Code 035 (C3-C9 inhibitor; C-Late), lysis of EAC 142; assay type: cell-based; conditions: serial twofold dilution assay; higher well number indicates higher activity
Excerpt: as §1, §2, §3

[3] = tested on: shunt pathway activated by cobra venom factor; experiment: Test Code 036 (C-Shunt inhibitor), lysis of human erythrocytes by cobra venom factor; assay type: cell-based; conditions: serial twofold dilution assay; higher well number indicates higher activity
Excerpt: as §1, §2, §3

Compound	anticomplementary effect (complement system)	success in the treatment of hereditary angioneurotic edema [1]	further results
heparin	anticomplementary effect	–	–
Nc1ccc2cc(S(=O)(=O)[O-])cc(O)c2c1N=Nc1ccc(NC(=O)Nc2ccc(N=Nc3c(N)ccc4cc(S(=O)(=O)[O-])cc(O)c34)c(S(=O)(=O)[O-])c2)cc1S(=O)(=O)[O-].[Na+].[Na+].[Na+].[Na+] [chlorazol fast pink, 3,3'-ureylenebis[6-(2-amino-8-hydroxy-6-sulfo-1-naphthylazo)benzenesulfonic acid], tetrasodium salt]	anticomplementary effect	–	–
NC[C@H]1CC[C@H](C(=O)O)CC1 [tranexamic acid]	–	used with success in the treatment of hereditary angioneurotic edema	–
NCCCCCC(=O)O [epsilon-aminocaproic acid]	–	used with success in the treatment of hereditary angioneurotic edema	–
pentosan-polysulfoester	–	–	anticomplementary activity on human serum, as judged by the reduction in total hemolytic complement activity (human serum complement): anticomplementary activity on human serum, both in vitro and in vivo
O=S(=O)(O)OC[C@H]1O[C@@H](OC[C@H]2O[C@H](OC[C@H]3OC(OS(=O)(=O)O)[C@H](OS(=O)(=O)O)[C@@H](OS(=O)(=O)O)[C@@H]3OS(=O)(=O)O)[C@H](OS(=O)(=O)O)[C@@H](OS(=O)(=O)O)[C@H]2OS(=O)(=O)O)[C@H](OS(=O)(=O)O)[C@@H](OS(=O)(=O)O)[C@@H]1O[C@H]1O[C@H](COS(=O)(=O)O)[C@@H](O[C@H]2O[C@H](COS(=O)(=O)O)[C@@H](O[C@H]3O[C@H](COS(=O)(=O)O)[C@@H](O[C@H]4O[C@H](COS(=O)(=O)O)[C@@H](O[C@H]5O[C@H](COS(=O)(=O)O)[C@@H](O[C@H]6O[C@H](COS(=O)(=O)O)[C@@H](OS(=O)(=O)O)[C@H](OS(=O)(=O)O)[C@H]6OS(=O)(=O)O)[C@H](OS(=O)(=O)O)[C@H]5OS(=O)(=O)O)[C@H](OS(=O)(=O)O)[C@H]4OS(=O)(=O)O)[C@H](OS(=O)(=O)O)[C@H]3OS(=O)(=O)O)[C@H](OS(=O)(=O)O)[C@H]2OS(=O)(=O)O)[C@H](OS(=O)(=O)O)[C@H]1OS(=O)(=O)O (stereo partly drawn) [(glc →1α,4)6 glc →1β,6 gal →1α,6 nonacosakis (H-sulfate), no] [(Glc 1α,4)6 glc 1β,6 gal 1α,6 glc nonacosakis (H-sulfate) nonacosasodium salt]	–	–	C1 026* Wells (activated human C1): +9 Wells; C-Late 035* Wells [2]: +3 Wells; Shunt Inhibition 036* Wells [3]: +5 Wells
